Data as given in patent US20030187048A1, “Method for inhibiting skin lesion formation using histamine as the active ingredient” (priority 1991, published 2003).
Several values for one entry are separate records, joined by “and”; a condition that tells them apart may be missing. Equal values may be shown once. Read-outs that look alike come from different tables or passages of the source.

Columns and labels:
herpes genitalis lesions = settings: for Burning score / Local pain score: scale 0 to 5; for Reduction in Complete Healing Time: vs usual episode
Description: Treatment consisted of topical application three times a day for a period of five days. […] The percent reduction in complete healing time as compared to a usual episode was evaluated grouping the two patients who received active gel concentrations together and comparing to the two patients receiving placebo gel.
Each patient was contacted daily for 5 days for his or her estimate of the symptomatic relief of 6 common symptoms associated with genital herpes as well as the patient's interpretation of total healing of the episode. In an attempt to quantify responses, patients were asked to rate each symptom on a scale of 0 to 5 with 0 representing no evidence of the symptom and 5 representing the worst or most prominent evidence of the symptom ever for the patient. Subject compliance with the study regimen and the use of other medications was also assessed.

[1] = tested on: Photodermatitis (second degree sunburn); settings: for Avg blister/hr: from count at 65 hours; for Discomfort on Lotion or Gel Application / General Discomfort: scored 1 (none) to 5 (worst)
Description: Treatment consisted of topical application of all lotion or gel concentrations to their respective, randomly assigned quadrants ever 30 minutes for the first 2 hours following the irradiation period, followed by lotion or gel or applications every hour for four hours, then lotion or gel applications three times a day until 65 hours elapsed post 2-z irradiation. Photographs were taken during the treatment period and upon the formation of identifiable blisters, the numbers of blisters in each quadrant were recorded at three times during-the treatment period with cessation of lotion or gel application and data collection at the 65 hours point as exfoliation (peeling) of the outer layers of the epidermis began at 70 hours.
Subjective evaluation involved an estimate of pain/discomfort following lotion or gel application in each quadrant as well as a comparative general discomfort level for each quadrant during the treatment period. Pain/discomfort was scored from 1 (none) to 5 (worst).

[2] = tested on: aphthous stomatitis lesions (canker sores); settings: for Mean percentage decay rates of lesions for each patient: standardized over 24 hour period
Description: Treatment consisted of topical application five times per day for a period of five days., with daily evaluation by the patient and clinician. Lesion decay rates (decrease in lesion size over time) of Groups C and E were grouped together and compared to Group B, the placebo Group.
Assignment of subjects within groups to the three concentrations was unknown to the investigator.
The decay rate was calculated by first computing the percentage decrease in size of the lesion over time and then standardizing the decay rate over an exact 24 hour period.

[3] = tested on: pressure sores (decubitus ulcers); settings: for Percent Reduction in Area from original Size / Mean Percent Reduction/Week: per patient; for Mean Percent Reduction/Week: lesion area from original size
From the text: Treatment included standardized decubitus ulcer care for all pressure sores as determined by the protocol for the study.
Prospective subjects were considered for the study if their pressure sores (decubitus ulcers) were free from infection and either a Stage I or a Stage II lesion.
Patients were randomly assigned to one of four active ingredient levels being evaluated. […] Assignment of subjects to the four gel concentrations was unknown to the investigator.
The topical application of all gel concentrations to their respective, randomly assigned patients occurred once daily following careful rinsing of the pressure sore with sterile normal saline. After application of the appropriate gel concentration, each pressure sore was covered with a bio-occlusive dressing to minimize wound contamination.
Clinical evaluation included weekly classification of the stage of the pressure sores, the size and depth of the sores, the color, signs of infection (if present), odor (if present), and patient cooperation with treatment.

[4] = 0.0045% IEP, lower right quadrant
[5] = 0.0067% IEP, upper left quadrant

Work on `NCCc1c[nH]cn1` [IEP, 1H-imidazole-4-ethanamine,phosphate] yielded a Burning score (herpes genitalis lesions; 0.0275% IEP gel, day 1) of 3, a Local pain score (herpes genitalis lesions; 0.0275% IEP gel, day 1 of treatment) of 3 and a Burning score (herpes genitalis lesions; 0.0275% IEP gel, day 2) of 0. It also gave a Local pain score (herpes genitalis lesions; 0.0275% IEP gel, day 2) of 0, a Burning score (herpes genitalis lesions; 0.0275% IEP gel, day 3) of 0 and a Local pain score (herpes genitalis lesions; 0.0275% IEP gel, day 3) of 0. The Burning score (herpes genitalis lesions; 0.0275% IEP gel, day 4) was 0, the Local pain score (herpes genitalis lesions; 0.0275% IEP gel, day 4) was 0 and the Burning score (herpes genitalis lesions; 0.0275% IEP gel, day 5) was 0. The Local pain score (herpes genitalis lesions; 0.0275% IEP gel, day 5) was 0, the “Healing Time” value (herpes genitalis lesions; 0.0275% IEP gel, patient 603, usual healing time 7 days) was 1 days and the “Reduction in Complete Healing Time” value (herpes genitalis lesions; 0.0275% IEP gel) was 85%. For the same molecule, the Burning score (herpes genitalis lesions; […] IEP gel, day 1) was 3, the Local pain score (herpes genitalis lesions; […] IEP gel, day 1) was 4 and the Burning score (herpes genitalis lesions; […] IEP gel, day 2) was 1. It also gave a Local pain score (herpes genitalis lesions; […] IEP gel, day 2) of 2, a Burning score (herpes genitalis lesions; […] IEP gel, day 3) of 0 and a Local pain score (herpes genitalis lesions; […] IEP gel, day 3) of 2. The Burning score (herpes genitalis lesions; […] IEP gel, day 4) was 0, the Local pain score (herpes genitalis lesions; […] IEP gel, day 4) was 0 and the Burning score (herpes genitalis lesions; […] IEP gel, day 5) was 0. For the same molecule, the Local pain score (herpes genitalis lesions; […] IEP gel, day 5) was 0, the “Healing Time” value (herpes genitalis lesions; […] IEP gel, patient 604, usual healing time 7 days) was 3.5 days and the “Reduction in Complete Healing Time” value (herpes genitalis lesions; […] IEP gel) was 50%. The “Difference in percent reduction in complete healing time vs placebo” value (herpes genitalis lesions; combined […] and 0.0275% groups, p<0.05) was “significant”, the Untoward reactions (herpes genitalis lesions; topical gel […], 0.0275%, three times a day for five days) was “no untoward reactions” and the “Total # of blisters at 42 hrs” value [1, 4] was 7. For the same molecule, the “Total # of blisters at 52 hrs” value [1, 4] was 7, the “Total # of blisters at 65 hrs” value [1, 4] was 14 and the Avg blister/hr [1, 4] was 0.215 blister/hr. For the same molecule, the “Discomfort on Lotion or Gel Application” value ([1]; 0.0045% lotion or gel) was 2, the “General Discomfort” value ([1]; 0.0045% lotion or gel) was 1 and the “Total # of blisters at 52 hrs” value [1, 5] was 2. The “Total # of blisters at 65 hrs” value [1, 5] was 10, the Avg blister/hr [1, 5] was 0.154 blister/hr and the “Total # of blisters at 42 hrs” value ([1]; 0.0067% IEP, upper left quadrant, hours post irradiation) was 2. For the same molecule, the “Discomfort on Lotion or Gel Application” value ([1]; 0.0067% lotion or gel) was 1, the “General Discomfort” value ([1]; 0.0067% lotion or gel) was 1 and the “Treatment effect vs placebo, total rate of blister formation” value ([1]; active lotion or gel (0.0045% and 0.0067% combined), p<0.05) was “statistically significant treatment effect”. For the same molecule, the Untoward effects ([1]; in vivo) was “no untoward effects”, the “Mean percentage decay rate of lesions, Conc. Mean” value ([2]; 0.0067% gel, 3 patients) was 74.1% and the “Mean percentage decay rates of lesions for each patient” value ([2]; 0.0067% gel) was 100.0% and 53.8% and 68.4%. The “Mean percentage decay rate of lesions, Conc. Mean” value ([2]; 0.0275% gel, 2 patients) was 83.5%, the “Mean percentage decay rates of lesions for each patient” value ([2]; 0.0275% gel) was 104.0% and 62.9% and the “Reducing lesion size over time vs placebo (analysis of variance)” value ([2]; Groups C and E (0.0067%, 0.0275%) combined, p<.O1) was “significantly more effective”. The “Untoward events or significant complications” value ([2]; in vivo) was “No untoward events or significant complications”, the “Percent Reduction in Area from original Size” value (shortened to “Percent Reduction in Area”) ([3]; 0.0045% IEP gel, end of treatment week 1) was 28.5% and 29.8% and the “Percent Reduction in Area” value ([3]; 0.0045% IEP gel, end of week 2) was 33.6% and 66.6%. The “Percent Reduction in Area” value ([3]; 0.0045% IEP gel, end of week 3) was 51.6% and 72.8%, the “Percent Reduction in Area” value ([3]; 0.0045% IEP gel, end of week 4) was 71.7% and 84.9% and the “Percent Reduction in Area” value ([3]; 0.0045% IEP gel, end of week 5) was 78.8% and 90.1%. The “Percent Reduction in Area” value ([3]; 0.0045% IEP gel, end of week 6) was 87.0% and 95.6%, the “Percent Reduction in Area” value ([3]; 0.0045% IEP gel, end of week 7) was 91.4% and 97.5% and the “Percent Reduction in Area” value ([3]; 0.0045% IEP gel, end of week 8) was 92.3% and 99.4%. The “Percent Reduction in Area” value ([3]; 0.0045% IEP gel, end of week 9) was 92.3% and 99.4%, the “Percent Reduction in Area” value ([3]; 0.0045% IEP gel, end of week 10) was 99.4% and the “Mean Percent Reduction/Week” value ([3]; 0.0045% gel) was 10.3% and 12.1%. For the same molecule, the “Percent Reduction in Area” value ([3]; 0.0069% IEP gel, end of week 1) was 48.6% and 55.6%, the “Percent Reduction in Area” value ([3]; 0.0069% IEP gel, end of week 2) was 77.1% and 60.0% and the “Percent Reduction in Area” value ([3]; 0.0069% IEP gel, end of week 3) was 77.1% and 78.2%. For the same molecule, the “Percent Reduction in Area” value ([3]; 0.0069% IEP gel, end of week 4) was 100% and 81.3%, the “Percent Reduction in Area” value ([3]; 0.0069% IEP gel, end of week 5) was 84.4% and the “Percent Reduction in Area” value ([3]; 0.0069% IEP gel, end of week 6) was 88.9%. The “Percent Reduction in Area” value ([3]; 0.0069% IEP gel, end of week 7) was 100%, the “Mean Percent Reduction/Week” value ([3]; 0.0069% gel) was 14.3% and 25.0% and the “Percent Reduction in Area” value ([3]; 0.009% IEP gel, end of week 1) was 66.7% and 56.5%. The “Percent Reduction in Area” value ([3]; 0.009% IEP gel, end of week 2) was 100.0% and 56.5%, the “Percent Reduction in Area” value ([3]; 0.009% IEP gel, end of week 3) was 100.0% and the “Mean Percent Reduction/Week” value ([3]; 0.009% gel) was 50.0% and 40.0%. The “Reducing the size of pressure sores vs placebo gel” value ([3]; 0.009% vs 0%, mean percent reduction in area per week, p<0.05) was “statistically significantly more effective” and the Untoward effects ([3]; in vivo) was “no untoward effects”.
